Measurements reported in patent US7342033B2 (Vereniging Voor Christelijk Wetenschappelijk Onderwijs, priority 1999, dated 2008).

Tested on: multiple sclerosis patients
Assay: Adverse events and tolerability in the same study
Type: in vivo, human
Source text: We selected 9 women and 7 men (aged 30-66 years) with documented progression during the 24 months before inclusion, from a natural history study. Kurtzke's EDSS scores were between 3.0 (inclusive) and 7.5 (inclusive). All adverse events were documented; safety lab consisted of serum transaminases (monthly for 3 months and every 3 months thereafter) and hematology (CBC and differential every 6 months) after the start of treatment. The study was approved by the hospital ethics committee, and all patients gave informed consent.

## Nc1nc2ccc(OC(F)(F)F)cc2s1 [riluzole, (6-trifluoromethoxy)-2-benzothiazolamine)]
14 patients who took medication for over three months
  Medically severe adverse effects: not observed
Of 16 patients, riluzole 2×50 mg daily
  Patients who needed intermittent reduction in dosage of study drug: Five
Of 16 patients, headache in one, increase in spasticity in the other
  Patients who discontinued treatment because of side effects: Two
